# Data published in patent US20250205135A1, “COMPOSICION DE EXTRACTOS VEGETALES PARA PALIAR LOS EFECTOS DEL ENVEJECIMIENTO O RETRASO DE LA SENESCENCIA CELULAR” (MONTELOEDER S.L., priority 2022, published 2025).
# Test system: normal human dermal fibroblasts (NHDF)
# Assay: MTT cell proliferation assay in fibroblasts pre-aged with H2O2
# Format: cell-based
# Details: EGF 20 ng/ml positive control, after 3 hours H2O2 (500 μM)
# Method: For the cell proliferation assay, normal human dermal fibroblasts (NHDF) were exposed for 3 hours to conditioned ageing medium containing H2O2 (500 μM). After the incubation period, the medium was replaced with fresh medium containing composition A according to the invention at different concentrations for 96 hours. Epidermal growth factor (EGF, 20 ng/ml) was included as positive control and NHDF without pretreatment in H2O2 as non-aged control (Control). Cell viability was quantified using the MTT assay.
substance,measurement,value
Epidermal growth factor [EGF],increase in cell viability compared to the aged control,+22.9%
